Results reported in ChEMBL document CHEMBL1649296, “Modifying culture conditions in chemical library screening identifies alternative inhibitors of mycobacteria” (Antimicrob Agents Chemother, 2009).
pIC50: −log10 of the molar value. In brackets after ≈: the same amount, converted by molar mass. Where a name gives a salt, the structure may show the parent alone.

Assays:
Type in all cases: functional, organism-based
[1] = system: Mycolicibacterium smegmatis; experiment: Antimycobacterial activity against Mycobacterium smegmatis grown in carbon-limited broth medium assessed as growth inhibition in mid-logarithmic phase by GFP-based fluorescence assay
[2] = system: Mycolicibacterium smegmatis; experiment: Antimycobacterial activity against Mycobacterium smegmatis grown in carbon-limited broth medium assessed as growth inhibition in mid-logarithmic phase by spectrophotometry
[3] = system: Mycolicibacterium smegmatis; experiment: Antimycobacterial activity against Mycobacterium smegmatis grown in Luria-Bertani broth medium assessed as growth inhibition in mid-logarithmic phase by spectrophotometry
[4] = system: Mycolicibacterium smegmatis; experiment: Antimycobacterial activity against Mycobacterium smegmatis grown in Luria-Bertani broth medium assessed as growth inhibition in mid-logarithmic phase by GFP-based fluorescence assay
[5] = system: Mycolicibacterium smegmatis; experiment: Antimycobacterial activity against Mycobacterium smegmatis grown in nitrogen -limited broth medium assessed as growth inhibition in mid-logarithmic phase by spectrophotometry
[6] = system: Mycolicibacterium smegmatis; experiment: Antimycobacterial activity against Mycobacterium smegmatis grown in nitrogen -limited broth medium assessed as growth inhibition in mid-logarithmic phase by GFP-based fluorescence assay

Row | Molecule | pIC50 ([1]; Mycolicibacterium smegmatis) | MIC ([1]; Mycolicibacterium smegmatis) | pIC50 ([2]; Mycolicibacterium smegmatis) | MIC ([2]; Mycolicibacterium smegmatis) | pIC50 ([3]; Mycolicibacterium smegmatis) | MIC ([3]; Mycolicibacterium smegmatis) | pIC50 ([4]; Mycolicibacterium smegmatis) | MIC ([4]; Mycolicibacterium smegmatis) | pIC50 ([5]; Mycolicibacterium smegmatis) | MIC ([5]; Mycolicibacterium smegmatis) | pIC50 ([6]; Mycolicibacterium smegmatis) | MIC ([6]; Mycolicibacterium smegmatis) | further results
1 | Cc1cc(N)c2ccccc2[n+]1CCCCCCCCCCCCCC[n+]1c(C)cc(N)c2ccccc21 | 5.56 | 6.25 µM | 5.56 | 6.25 µM | 5.40 | 6.25 µM | 5.40 | 6.25 µM | 5.76 | 3.12 µM | 5.76 | 3.12 µM | –
2 | c1ccc2c(c1)[I+]c1ccccc1-2 [DIPHENYLENEIODONIUM] | 5.07 | 3.12 µM | 5.07 | 3.12 µM | 5.17 | 6.25 µM | 5.17 | 6.25 µM | 5.79 | 3.12 µM | 5.79 | 3.12 µM | –
3 | N=C(N)c1ccc(OCCCCCOc2ccc(C(=N)N)cc2)cc1 [PENTAMIDINE] | 4.96 | 25 µM (≈ 8.51 µg/mL) | 4.96 | 25 µM (≈ 8.51 µg/mL) | 4.63 | 50 µM (≈ 17 µg/mL) | 4.63 | 50 µM (≈ 17 µg/mL) | 5.04 | 50 µM (≈ 17 µg/mL) | 5.04 | 50 µM (≈ 17 µg/mL) | –
4 | 4-CHLOROMERCURIBENZOIC ACID | – | – | – | – | – | – | – | – | – | – | – | – | pIC50 [1]: 5.12; pIC50 [2]: 5.12; pIC50 [3]: 5.15; pIC50 [4]: 5.15; pIC50 [5]: 5.20; pIC50 [6]: 5.20
5 | CN1CCN(CCCN2c3ccccc3Sc3ccc(C(F)(F)F)cc32)CC1 [TRIFLUOPERAZINE] | 4.91 | 50 µM (≈ 20.4 µg/mL) | 4.91 | 50 µM (≈ 20.4 µg/mL) | 4.91 | 50 µM (≈ 20.4 µg/mL) | 4.91 | 50 µM (≈ 20.4 µg/mL) | 5.50 | 50 µM (≈ 20.4 µg/mL) | 5.50 | 50 µM (≈ 20.4 µg/mL) | –
6 | 4-[sequence] ACID | – | – | – | – | – | – | – | – | – | – | – | – | MIC [1]: 6.25 µM; MIC [2]: 6.25 µM; MIC [3]: 25 µM; MIC [4]: 25 µM; MIC [5]: 12.5 µM; MIC [6]: 12.5 µM
7 | CN(C)[C@@H]1C(O)=C(C(N)=O)C(=O)[C@@]2(O)C(O)=C3C(=O)c4c(O)ccc(Cl)c4[C@@H](O)[C@H]3C[C@@H]12 [DEMECLOCYCLINE] | 5.23 | 6.25 µM (≈ 2.91 µg/mL) | 5.23 | 6.25 µM (≈ 2.91 µg/mL) | 5.73 | 3.12 µM (≈ 1.45 µg/mL) | 5.73 | 3.12 µM (≈ 1.45 µg/mL) | 5.36 | 6.25 µM (≈ 2.91 µg/mL) | 5.36 | 6.25 µM (≈ 2.91 µg/mL) | –
8 | c1cnc2c(c1)ccc1cccnc12 [PHENANTHROLINE] | 5.30 | 12.5 µM (≈ 2.25 µg/mL) | 5.30 | 12.5 µM (≈ 2.25 µg/mL) | 4.38 | 50 µM (≈ 9.01 µg/mL) | 4.38 | 50 µM (≈ 9.01 µg/mL) | 5.24 | 12.5 µM (≈ 2.25 µg/mL) | 5.24 | 12.5 µM (≈ 2.25 µg/mL) | –
9 | CN(C)C(CCCCC[N+](C)(C)CCCN1C(=O)c2cccc3cccc(c23)C1=O)CCCN1C(=O)c2cccc3cccc(c23)C1=O (stereo unspecified) | 4.93 | 50 µM | 4.93 | 50 µM | 5.09 | 50 µM | 5.09 | 50 µM | 5.22 | 25 µM | 5.22 | 25 µM | –
10 | Cc1c(C)c2c(c(C)c1O)CCC(C)(CN1CCN(c3cc(N4CCCC4)nc(N4CCCC4)n3)CC1)O2 (single isomer, unassigned) | < 4.30 | 50 µM (≈ 26 µg/mL) | < 4.30 | 50 µM (≈ 26 µg/mL) | < 4.30 | 50 µM (≈ 26 µg/mL) | < 4.30 | 50 µM (≈ 26 µg/mL) | 4.47 | 50 µM (≈ 26 µg/mL) | 4.47 | 50 µM (≈ 26 µg/mL) | –
11 | COc1ccccc1CNCCCCCCNCCCCCCCCNCCCCCCNCc1ccccc1OC [METHOCTRAMINE HYDROCHLORIDE] | 5.16 | 12.5 µM | 5.16 | 12.5 µM | 4.80 | 12.5 µM | 4.80 | 12.5 µM | 5.13 | 12.5 µM | 5.13 | 12.5 µM | –
12 | O=S1(=O)N(CCN2CC=C(c3c[nH]c4cc(F)ccc34)CC2)c2cccc3c2N1CCC3 | 4.60 | 25 µM (≈ 11.3 µg/mL) | 4.60 | 25 µM (≈ 11.3 µg/mL) | 4.60 | 50 µM (≈ 22.6 µg/mL) | 4.60 | 50 µM (≈ 22.6 µg/mL) | 4.65 | 50 µM (≈ 22.6 µg/mL) | 4.65 | 50 µM (≈ 22.6 µg/mL) | –
13 | Clc1ccccc1C(c1ccccc1)(c1ccccc1)n1ccnc1 [CLOTRIMAZOLE] | 4.74 | 50 µM (≈ 17.2 µg/mL) | 4.74 | 50 µM (≈ 17.2 µg/mL) | 5.18 | 12.5 µM (≈ 4.31 µg/mL) | 5.18 | 12.5 µM (≈ 4.31 µg/mL) | 4.91 | 50 µM (≈ 17.2 µg/mL) | 4.91 | 50 µM (≈ 17.2 µg/mL) | –
14 | Clc1ccc(C(c2ccc(Cl)cc2)[n+]2ccn(CC(OCc3ccc(Cl)cc3Cl)c3ccc(Cl)cc3Cl)c2)cc1 (stereo unspecified) [CALMIDAZOLIUM CHLORIDE] | 4.86 | 50 µM | 4.86 | 50 µM | 4.88 | 12.5 µM | 4.88 | 12.5 µM | 5.15 | 12.5 µM | 5.15 | 12.5 µM | –
15 | CC(=O)[C@]1(O)Cc2c(O)c3c(c(O)c2[C@@H](O[C@H]2C[C@H](N)[C@H](O)[C@H](C)O2)C1)C(=O)c1ccccc1C3=O [IDARUBICIN] | 5.18 | 25 µM (≈ 12.4 µg/mL) | 5.18 | 25 µM (≈ 12.4 µg/mL) | 5.44 | 12.5 µM (≈ 6.22 µg/mL) | 5.44 | 12.5 µM (≈ 6.22 µg/mL) | 5.29 | 12.5 µM (≈ 6.22 µg/mL) | 5.29 | 12.5 µM (≈ 6.22 µg/mL) | –
16 | CCn1cc(C(=O)O)c(=O)c2cc(F)c(N3CCNC(C)C3)c(F)c21 (stereo unspecified) [LOMEFLOXACIN] | 5.31 | 6.25 µM (≈ 2.2 µg/mL) | 5.31 | 6.25 µM (≈ 2.2 µg/mL) | 5.36 | 12.5 µM (≈ 4.39 µg/mL) | 5.36 | 12.5 µM (≈ 4.39 µg/mL) | 5.84 | 6.25 µM (≈ 2.2 µg/mL) | 5.84 | 6.25 µM (≈ 2.2 µg/mL) | –
17 | CNc1ccc2oc(C[C@H]3O[C@@]4(CC[C@H]3C)O[C@H]([C@H](C)C(=O)c3ccc[nH]3)[C@H](C)C[C@H]4C)nc2c1C(=O)O [CALCIMYCIN] | 5.28 | 12.5 µM (≈ 6.55 µg/mL) | 5.28 | 12.5 µM (≈ 6.55 µg/mL) | 5.98 | 3.12 µM (≈ 1.64 µg/mL) | 5.98 | 3.12 µM (≈ 1.64 µg/mL) | 5.46 | 12.5 µM (≈ 6.55 µg/mL) | 5.46 | 12.5 µM (≈ 6.55 µg/mL) | –
18 | C[C@H]1c2cccc(O)c2C(=O)C2=C(O)[C@]3(O)C(=O)C(C(N)=O)=C(O)[C@@H](N(C)C)[C@@H]3[C@@H](O)[C@@H]21 [DOXYCYCLINE] | 5.53 | 3.12 µM (≈ 1.39 µg/mL) | 5.53 | 3.12 µM (≈ 1.39 µg/mL) | 6.12 | 1.56 µM (≈ 0.693 µg/mL) | 6.12 | 1.56 µM (≈ 0.693 µg/mL) | 5.71 | 3.12 µM (≈ 1.39 µg/mL) | 5.71 | 3.12 µM (≈ 1.39 µg/mL) | –
19 | CC(C)(C)c1ccc(S(=O)(=O)/C=C/C#N)cc1 [BAY-11-7085] | 5.59 | 6.25 µM (≈ 1.56 µg/mL) | 5.59 | 6.25 µM (≈ 1.56 µg/mL) | 4.51 | 50 µM (≈ 12.5 µg/mL) | 4.51 | 50 µM (≈ 12.5 µg/mL) | 5.21 | 12.5 µM (≈ 3.12 µg/mL) | 5.21 | 12.5 µM (≈ 3.12 µg/mL) | –
20 | O=C(Nc1ccc([N+](=O)[O-])cc1Cl)c1cc(Cl)ccc1O [NICLOSAMIDE] | 5.48 | 6.25 µM (≈ 2.04 µg/mL) | 5.48 | 6.25 µM (≈ 2.04 µg/mL) | 5.16 | 12.5 µM (≈ 4.09 µg/mL) | 5.16 | 12.5 µM (≈ 4.09 µg/mL) | 5.33 | 6.25 µM (≈ 2.04 µg/mL) | 5.33 | 6.25 µM (≈ 2.04 µg/mL) | –
21 | CN[C@H](CC(C)C)C(=O)N[C@H]1C(=O)N[C@@H](CC(N)=O)C(=O)N[C@H]2C(=O)N[C@H]3C(=O)N[C@H](C(=O)N[C@H](C(=O)O)c4cc(O)cc(O)c4-c4cc3ccc4O)[C@H](O)c3ccc(c(Cl)c3)Oc3cc2cc(c3O[C@@H]2O[C@H](CO)[C@@H](O)[C@H](O)[C@H]2O[C@H]2C[C@](C)(N)[C@H](O)[C@H](C)O2)Oc2ccc(cc2Cl)[C@H]1O [VANCOMYCIN] | 4.78 | 25 µM (≈ 36.2 µg/mL) | 4.78 | 25 µM (≈ 36.2 µg/mL) | 5.50 | 12.5 µM (≈ 18.1 µg/mL) | 5.50 | 12.5 µM (≈ 18.1 µg/mL) | 4.95 | 25 µM (≈ 36.2 µg/mL) | 4.95 | 25 µM (≈ 36.2 µg/mL) | –
22 | CC1COc2c(N3CCN(C)CC3)c(F)cc3c(=O)c(C(=O)O)cn1c23 (stereo unspecified) [OFLOXACIN] | 5.50 | 6.25 µM (≈ 2.26 µg/mL) | 5.50 | 6.25 µM (≈ 2.26 µg/mL) | 5.69 | 3.12 µM (≈ 1.13 µg/mL) | 5.69 | 3.12 µM (≈ 1.13 µg/mL) | 5.76 | 6.25 µM (≈ 2.26 µg/mL) | 5.76 | 6.25 µM (≈ 2.26 µg/mL) | –
23 | O=C1c2c(O)ccc(O)c2C(=O)c2c(NCCNCCO)ccc(NCCNCCO)c21 [MITOXANTRONE] | 5.01 | 50 µM (≈ 22.2 µg/mL) | 5.01 | 50 µM (≈ 22.2 µg/mL) | 4.66 | 50 µM (≈ 22.2 µg/mL) | 4.66 | 50 µM (≈ 22.2 µg/mL) | 5.30 | 50 µM (≈ 22.2 µg/mL) | 5.30 | 50 µM (≈ 22.2 µg/mL) | –
24 | C[Se]C[C@H](N)C(=O)O [METHYLSELENOCYSTEINE] | 5.66 | 12.5 µM (≈ 2.28 µg/mL) | 5.66 | 12.5 µM (≈ 2.28 µg/mL) | < 4.30 | > 50 µM | < 4.30 | > 50 µM | 6.22 | 12.5 µM (≈ 2.28 µg/mL) | 6.22 | 12.5 µM (≈ 2.28 µg/mL) | –
